{"source": "patent US8492366B2", "about": "“Enhancedly-solubilized beta-hydroxy acids and higher potency skin peels formulated therefrom” (Societe L'Oreal S.A., priority 2002, dated 2013)", "origin": "cited, not measured here", "data": [{"smiles": "O=C(O)c1ccccc1O", "note": "[salicylic acid, 2-hydroxybenzoic acid]", "values": [{"measurement": "maximum solubility in alcohol", "result": "~29", "unit": "%"}]}]}
